Test results reported in patent publication US8791102B2, “Acetanilide sphingosine-1-phosphate receptor antagonists” (Exelixis, Inc., priority 2008, dated 2014).

target: T1, human S1P1 receptors (Homo sapiens, UniProt P21453); assay: S1P1R antagonist assay (fluorescent membrane potential dye, cAMP readout); format: cell-based; conditions: HEK293 cells expressing human S1P1 receptors and CNG channel; 500 nM NECA; S1P1R agonist 10 nM; 90 minutes; read-out: EC50 or IC50 value
T1 construct: host or cells: HEK293
T1 sequence (P21453 whole entry): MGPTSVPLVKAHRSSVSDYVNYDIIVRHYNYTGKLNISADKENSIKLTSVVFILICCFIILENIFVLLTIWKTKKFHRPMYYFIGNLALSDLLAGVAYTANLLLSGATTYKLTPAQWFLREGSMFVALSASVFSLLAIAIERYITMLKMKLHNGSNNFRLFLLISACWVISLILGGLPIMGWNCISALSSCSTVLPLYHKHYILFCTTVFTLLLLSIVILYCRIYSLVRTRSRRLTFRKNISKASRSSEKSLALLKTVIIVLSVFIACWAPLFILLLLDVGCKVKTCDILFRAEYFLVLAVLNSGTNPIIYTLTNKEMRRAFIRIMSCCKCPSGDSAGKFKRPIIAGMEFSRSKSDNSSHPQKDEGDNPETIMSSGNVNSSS

| SMILES | IC50 |
| --- | --- |
| O=C(CCCCc1ccccc1)N[C@@H](COCc1ccccc1)C(=O)Nc1ccc(Oc2ccc(F)cc2)cc1 [Compound 104, (S)—N-(3-(benzyloxy)-1-(4-(4-fluorophenoxy)phenylamino)-1-oxopropan-2-yl)-5-phenylpentanamide] | > 1000 nM |
| O=C(CN1CCC(N2CCOCC2)CC1)N[C@@H](COCc1ccccc1)C(=O)Nc1ccc(Oc2ccc(F)cc2)cc1 [Compound 105, (S)-3-(benzyloxy)-N-(4-(4-fluorophenoxy)phenyl)-2-(2-(4-morpholinopiperidin-1-yl)acetamido)propanamide] | > 1000 nM |
| CCN(CC)C1CCN(CC(=O)N[C@@H](COCc2ccccc2)C(=O)Nc2ccc(Oc3ccc(F)cc3)cc2)C1 (stereo partly drawn) [Compound 109, (2S)-3-(benzyloxy)-2-(2-(3-(diethylamino)pyrrolidin-1-yl)acetamido)-N-(4-(4-fluorophenoxy)phenyl)propanamide] | > 1000 nM |
| O=C(CN1CCN(CC2CCCO2)CC1)N[C@@H](COCc1ccccc1)C(=O)Nc1ccc(Oc2ccc(F)cc2)cc1 (stereo partly drawn) [Compound 110, (2S)-3-(benzyloxy)-N-(4-(4-fluorophenoxy)phenyl)-2-(2-(4-((tetrahydrofuran-2-yl)methyl)piperazin-1-yl)acetamido)propanamide] | > 1000 nM |
| CC(C)N1CCN(CC(=O)N[C@@H](COCc2ccccc2)C(=O)Nc2ccc(Oc3ccc(F)cc3)cc2)CC1 [Compound 111, (S)-3-(benzyloxy)-N-(4-(4-fluorophenoxy)phenyl)-2-(2-(4-isopropylpiperazin-1-yl)acetamido)propanamide] | > 1000 nM |
| O=C(CN1CCN(c2ncccc2C(F)(F)F)CC1)N[C@@H](COCc1ccccc1)C(=O)Nc1ccc(Oc2ccc(F)cc2)cc1 [Compound 112, (S)-3-(benzyloxy)-N-(4-(4-fluorophenoxy)phenyl)-2-(2-(4-(3-(trifluoromethyl)pyridin-2-yl)piperazin-1-yl)acetamido)propanamide] | > 1000 nM |
| CCN1CCN(CC(=O)N[C@@H](COCc2ccccc2)C(=O)Nc2ccc(Oc3ccc(F)cc3)cc2)CC1 [Compound 114, (S)-3-(benzyloxy)-2-(2-(4-ethylpiperazin-1-yl)acetamido)-N-(4-(4-fluorophenoxy)phenyl)propanamide] | > 1000 nM |
| O=C(CN1CCN(c2ccccn2)CC1)N[C@@H](COCc1ccccc1)C(=O)Nc1ccc(Oc2ccc(F)cc2)cc1 [Compound 126, (S)-3-(benzyloxy)-N-(4-(4-fluorophenoxy)phenyl)-2-(2-(4-(pyridin-2-yl)piperazin-1-yl)acetamido)propanamide] | > 1000 nM |
| O=C(CN1CCN(c2ccccc2F)CC1)N[C@@H](COCc1ccccc1)C(=O)Nc1ccc(Oc2ccc(F)cc2)cc1 [Compound 127, (S)-3-(benzyloxy)-N-(4-(4-fluorophenoxy)phenyl)-2-(2-(4-(2-fluorophenyl)piperazin-1-yl)acetamido)propanamide] | > 1000 nM |
| O=C(CN1CCCCCC1)N[C@@H](COCc1ccccc1)C(=O)Nc1ccc(Oc2ccc(F)cc2)cc1 [Compound 128, (S)-2-(2-(azepan-1-yl)acetamido)-3-(benzyloxy)-N-(4-(4-fluorophenoxy)phenyl)propanamide] | > 1000 nM |
| CC1CCN(CC(=O)N[C@@H](COCc2ccccc2)C(=O)Nc2ccc(Oc3ccc(F)cc3)cc2)CC1 [Compound 130, (S)-3-(benzyloxy)-N-(4-(4-fluorophenoxy)phenyl)-2-(2-(4-methylpiperidin-1-yl)acetamido)propanamide] | > 1000 nM |
| O=C(Cc1c[nH]cn1)N[C@@H](COCc1ccccc1)C(=O)Nc1ccc(Oc2ccc(F)cc2)cc1 [Compound 131, (S)-2-(2-(1H-imidazol-5-yl)acetamido)-3-benzyloxy-N-(4-(4-fluorophenoxy)phenyl)propanamide] | ≤ 300 nM |
| O=C(Cc1c[nH]cn1)N[C@@H](COCc1ccc(F)cc1)C(=O)Nc1ccc(Oc2ccc(Cl)cc2)cc1 [Compound 132, (S)-2-(2-(1H-imidazol-5-yl)acetamido)-3-(4-fluorobenzyloxy)-N-(4-(4-chlorophenoxy)phenyl)propanamide] | ≤ 300 nM |
| O=C(Cc1c[nH]cn1)N[C@@H](COCc1ccc(F)cc1)C(=O)Nc1ccc(Oc2ccc(F)cc2)cc1 [Compound 133, (S)-2-(2-(1H-imidazol-5-yl)acetamido)-3-(4-fluorobenzyloxy)-N-(4-(4-fluorophenoxy)phenyl)propanamide] | ≤ 300 nM |
| O=C(Cn1ccnc1)N[C@@H](COCc1ccccc1)C(=O)Nc1ccc(Oc2ccc(F)cc2)cc1 [Compound 134, (S)-2-(2-(1H-imidazol-1-yl)acetamido)-3-benzyloxy-N-(4-(4-fluorophenoxy)phenyl)propanamide] | ≤ 300 nM |
| O=C(Cn1cncn1)N[C@@H](COCc1ccc(F)cc1)C(=O)Nc1ccc(Oc2ccc(F)cc2)cc1 [Compound 135, (S)-2-(2-(1H-1,2,4-triazol-1-yl)acetamido)-3-(4-fluorobenzyloxy)-N-(4-(4-fluorophenoxy)phenyl)propanamide] | ≤ 300 nM |
| O=C(CCl)N[C@@H](COCc1ccccc1)C(=O)Nc1ccc(Oc2ccc(F)cc2)cc1 [Compound 136, (S)-3-(benzyloxy)-2-(2-chloroacetamido)-N-(4-(4-fluorophenoxy)phenyl)propanamide] | ≤ 300 nM |
| O=C(Cc1cnc[nH]1)N[C@@H](CCCc1ccccc1)C(=O)Nc1ccc(Oc2ccc(F)cc2)cc1 [Compound 137, (S)-2-(2-(1H-imidazol-5-yl)acetamido)-5-phenyl-N-(4-(4-fluorophenoxy)phenyl)pentanamide] | ≤ 300 nM |
| O=C(Cn1nccn1)N[C@@H](COCc1ccccc1)C(=O)Nc1ccc(Oc2ccc(F)cc2)cc1 [Compound 138, (S)-2-(2-(2H-1,2,3-triazol-2-yl)acetamido)-3-(benzyloxy)-N-(4-(4-fluorophenoxy)phenyl)propanamide] | ≤ 300 nM |

Second part, the compound after the results:

| IC50 | SMILES |
| --- | --- |
| ≤ 300 nM | O=C(Nc1ccc(Oc2ccc(F)cc2)cc1)[C@@H]1C[C@@H](Cc2ccccc2F)CN1C(=O)Cn1cncn1 [Compound 106, (2S,4R)-1-(2-(1H-1,2,4-triazol-1-yl)acetyl)-4-(2-fluorobenzyl)-N-(4-(4-fluorophenoxy)phenyl)pyrrolidine-2-carboxamide] |
| ≤ 300 nM | O=C(Nc1ccc(Oc2ccc(F)cc2)cc1)[C@@H]1C[C@@H](Cc2ccccc2F)CN1C(=O)Cn1nccn1 [Compound 107, (2S,4R)-1-(2-(2H-1,2,3-triazol-2-yl)acetyl)-4-(2-fluorobenzyl)-N-(4-(4-fluorophenoxy)phenyl)pyrrolidine-2-carboxamide] |
| ≤ 300 nM | O=C(Nc1ccc(Oc2ccc(F)cc2)cc1)[C@@H]1C[C@@H](Cc2c(F)cc(F)cc2F)CN1C(=O)Cn1cncn1 [Compound 108, (2S,4R)-1-(2-(1H-1,2,4-triazol-1-yl)acetyl)-N-(4-(4-fluorophenoxy)phenyl)-4-(2,4,6-trifluorobenzyl)pyrrolidine-2-carboxamide] |
| ≤ 300 nM | O=C(Nc1ccc(Oc2ccc(F)cc2)cc1)[C@@H]1C[C@@H](Cc2ccccc2)CN1C(=O)CN1CCOCC1 [Compound 116, (2S,4R)-4-benzyl-N-(4-(4-fluorophenoxy)phenyl)-1-(2-morpholinoacetyl)pyrrolidine-2-carboxamide] |
| ≤ 300 nM | O=C(Nc1ccc(Oc2ccc(F)cc2)cc1)[C@@H]1C[C@@H](Cc2ccccc2)CN1C(=O)Cc1cccs1 [Compound 117, (2S,4R)-4-benzyl-N-(4-(4-fluorophenoxy)phenyl)-1-(2-(thien-2-yl)acetyl)pyrrolidine-2-carboxamide] |
| ≤ 300 nM | CC(O)CC(=O)N1C[C@H](Cc2ccccc2)C[C@H]1C(=O)Nc1ccc(Oc2ccc(F)cc2)cc1 (stereo partly drawn) [Compound 118, (2S,4R)-4-benzyl-N-(4-(4-fluorophenoxy)phenyl)-1-(3-hydroxybutanoyl)pyrrolidine-2-carboxamide] |
| ≤ 300 nM | O=C(Nc1ccc(Oc2ccc(F)cc2)cc1)[C@@H]1C[C@@H](Cc2ccccc2)CN1C(=O)Cc1c(Cl)cccc1Cl [Compound 119, (2S,4R)-4-benzyl-1-(2-(2,6-dichlorophenyl)acetyl)-N-(4-(4-fluorophenoxy)phenyl)pyrrolidine-2-carboxamide] |
| ≤ 300 nM | O=C(Nc1ccc(Oc2ccc(F)cc2)cc1)[C@@H]1C[C@@H](Cc2ccccc2)CN1C(=O)CO [Compound 120, (2S,4R)-4-benzyl-N-(4-(4-fluorophenoxy)phenyl)-1-(2-hydroxyacetyl)pyrrolidine-2-carboxamide] |
| ≤ 300 nM | CCOCC(=O)N1C[C@H](Cc2ccccc2)C[C@H]1C(=O)Nc1ccc(Oc2ccc(F)cc2)cc1 [Compound 121, (2S,4R)-4-benzyl-1-(2-ethoxyacetyl)-N-(4-(4-fluorophenoxy)phenyl)pyrrolidine-2-carboxamide] |
| ≤ 300 nM | COCC(=O)N1C[C@H](Cc2ccccc2)C[C@H]1C(=O)Nc1ccc(Oc2ccc(F)cc2)cc1 [Compound 122, (2S,4R)-4-benzyl-N-(4-(4-fluorophenoxy)phenyl)-1-(2-methoxyacetyl)pyrrolidine-2-carboxamide] |
| ≤ 300 nM | CC(=O)CCC(=O)N1C[C@H](Cc2ccccc2)C[C@H]1C(=O)Nc1ccc(Oc2ccc(F)cc2)cc1 [Compound 123, (2S,4R)-4-benzyl-N-(4-(4-fluorophenoxy)phenyl)-1-(4-oxopentanoyl)pyrrolidine-2-carboxamide] |
| ≤ 300 nM | O=C(CCC(=O)N1C[C@H](Cc2ccccc2)C[C@H]1C(=O)Nc1ccc(Oc2ccc(F)cc2)cc1)c1ccccc1 [Compound 124, (2S,4R)-4-benzyl-N-(4-(4-fluorophenoxy)phenyl)-1-(4-oxo-4-phenylbutanoyl)pyrrolidine-2-carboxamide] |
| ≤ 300 nM | COC(=O)CCC(=O)N1C[C@H](Cc2ccccc2)C[C@H]1C(=O)Nc1ccc(Oc2ccc(F)cc2)cc1 [Compound 125, methyl 4-((2S,4R)-4-benzyl-2-(4-(4-fluorophenoxy)phenylcarbamoyl)pyrrolidin-1-yl)-4-oxobutanoate] |
| ≤ 300 nM | N#CCC(=O)N1C[C@H](Cc2ccccc2)C[C@H]1C(=O)Nc1ccc(Oc2ccc(F)cc2)cc1 [Compound 129, (2S,4R)-4-benzyl-1-(2-cyanoacetyl)-N-(4-(4-fluorophenoxy)phenyl)pyrrolidine-2-carboxamide] |
